Experimental data published in patent publication US11414384B2, “P300/CBP hat inhibitors” (Constellation Pharmaceuticals, Inc., priority 2018, dated 2022).

Experiments:
[1] = target: p300 HAT domain (residues 1287-1666) (Homo sapiens (Human), UniProt Q09472); experiment: p300 HAT SPA assay (scintillation proximity assay, acetylation of biotinylated H3(1-21) peptide); type: biochemical; conditions: p300 HAT domain; average of at least 2 replicate titrations; read-out: P300 HAT SPA IC50
Method in brief: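 Scintillation proximity readout of acetylated biotin-H3(1-21) captured on streptavidin plates after 1.5 hr at RT; enzyme was Ni2+/anion-exchange-purified HAT domain in 20 mM Hepes pH 7.5. Inhibitor IC50s calculated from the data.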

[2] = system: acetylation of chromatin at H3K18 (catalyzed by p300 and CBP) in HCT-116 cells; experiment: H3K18Ac MSD cellular assay; type: cell-based; conditions: 2 hr treatment, average of at least 2 replicate titrations
Description: Select compounds were also evaluated in a H3K18Ac MSD cellular assay that measures the ability of compounds to inhibit the acetylation of chromatin at H3K18, a process catalyzed by p300 and CBP. In a typical experiment the p300 HAT inhibitory activity inside cells of the compounds described herein was determined in accordance with the following experimental method. 20 k HCT-116 cells per well are plated in 75 μL RPMI+10% FBS media the night before treatment. Compounds plated in DMSO at 4× final concentration are resuspended in 30 μL RPMI+10% FBS, then 25 μL is combined with corresponding wells containing cells. Treated cells are incubated for 2 hr at 37° C., then lysed in 500 μL final volume and frozen at −80° C. MSD plates (Meso Scale Discovery) are coated overnight at 4° C. with 60 μL 1:500α-total histone antibody (Millipore MAB3422) in PBS. Plates are then blocked with 5% BSA in TBST shaking at RT for 1 hr, washed, and 30 μL lysate added to each well for 2 hr shaking at RT. Plates are washed and 25 μL 1:216α-H3K18ac antibody (CST 9675) in PBS added, then incubated for 1 hr shaking at RT. Plates are washed again, then 25 μL 1:1000 Sulfo-Tag goat a-rabbit antibody (Meso Scale Discovery R32Ab-1) in PBS is added for 1 hr shaking at RT. Plates are washed once more, then 150 μL 1× Read Buffer (MSD #R92TD-3) is added to all wells and read on MSD SECTOR Imager 2400 using the conventional read setup.

Sequence of p300 HAT domain (residues 1287-1666) (Q09472 1287-1666): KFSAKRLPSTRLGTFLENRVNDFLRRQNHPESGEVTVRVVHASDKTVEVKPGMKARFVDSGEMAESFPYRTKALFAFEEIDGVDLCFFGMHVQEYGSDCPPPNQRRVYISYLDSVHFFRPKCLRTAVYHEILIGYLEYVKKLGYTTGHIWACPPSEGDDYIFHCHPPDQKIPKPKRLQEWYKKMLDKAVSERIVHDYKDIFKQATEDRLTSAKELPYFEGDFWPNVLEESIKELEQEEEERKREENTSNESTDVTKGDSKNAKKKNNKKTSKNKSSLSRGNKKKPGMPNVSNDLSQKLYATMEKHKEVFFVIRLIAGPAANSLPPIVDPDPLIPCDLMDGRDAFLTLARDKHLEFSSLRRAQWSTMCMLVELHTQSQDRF

Row | SMILES | IC50 [1] | EC50 ([2]; Homo sapiens, HCT-116, 2 h) | EC50 [2]
1 | O=C(c1c[nH]c2ccccc12)C(NCCc1ccc(Cl)cc1Cl)c1ccccc1 (single isomer, unassigned) [19 Isomer 2] | 706 nM | 282 nM | –
2 | CC(CNC(C(=O)c1c[nH]c2ccccc12)c1ccccc1)c1ccc(Cl)cc1 (single isomer, unassigned) [26 Isomer 1] | > 30000 nM | – | > 10000 nM
3 | CC(CNC(C(=O)c1c[nH]c2ccccc12)c1ccccc1)c1ccc(Cl)cc1 (single isomer, unassigned) [26 Isomer 2] | 4560 nM | – | 2530 nM
4 | CC(CNC(C(=O)c1c[nH]c2ccccc12)c1ccccc1)c1ccc(Cl)cc1 (single isomer, unassigned) [26 Isomer 3] | 3790 nM | – | 6110 nM
5 | CC(CNC(C(=O)c1c[nH]c2ccccc12)c1ccccc1)c1ccc(Cl)cc1 (single isomer, unassigned) [26 Isomer 4] | 204 nM | – | 139 nM
6 | CC(Cc1ccc(Cl)cc1)NC(C(=O)c1c[nH]c2ccccc12)c1ccccc1 (single isomer, unassigned) [27 Isomer 1] | 636 nM | 681 nM | –
7 | Cc1ccc(CCNC(C(=O)c2c[nH]c3ccccc23)c2ccccc2)cc1 (single isomer, unassigned) [38 Isomer 2] | 698 nM | 1690 nM | –
8 | O=C(c1c[nH]c2ccccc12)C(NCCc1ccc(OC(F)(F)F)cc1)c1ccccc1 (single isomer, unassigned) [40 Isomer 2] | 1310 nM | 4010 nM | –
9 | Cc1ccc2c(C(=O)C(NCCc3ccc(F)cc3)c3ccccc3)c[nH]c2c1 (single isomer, unassigned) [48 Isomer 2] | 3340 nM | 3200 nM | –
10 | CCNc1ccc(CCNC(C(=O)c2c[nH]c3ccccc23)c2ccccc2)cn1 (single isomer, unassigned) [53 Isomer 2] | 4290 nM | 3470 nM | –
11 | Cc1ccc2c(C(=O)C(NCCc3ccc(S(N)(=O)=O)cc3)c3ccccc3)c[nH]c2c1 (single isomer, unassigned) [56 Isomer 2] | 3100 nM | 1440 nM | –
12 | N#Cc1ccc(CCNC(C(=O)c2c[nH]c3ccccc23)c2ccccc2)cc1 (single isomer, unassigned) [58 Isomer 2] | 201 nM | 477 nM | –
13 | CCC(CNC(C(=O)c1c[nH]c2ccccc12)c1ccccc1)c1ccc(Cl)cc1 (single isomer, unassigned) [59 Isomer 4] | 827 nM | 829 nM | –
14 | CC(=O)N1CCC(c2ccc3c(C(=O)C(NCCc4ccc(Cl)cc4)c4ccccc4)c[nH]c3c2)CC1 (single isomer, unassigned) [65 Isomer 2] | 422 nM | 71.7 nM | –
15 | Cn1cc(-c2ccc3c(C(=O)C(NCCc4ccc(S(N)(=O)=O)cc4)c4ccccc4)c[nH]c3c2)cn1 (single isomer, unassigned) [66 Isomer 2] | 281 nM | 43.3 nM | –
16 | Cc1cccc2c(C(=O)C(NC(C)Cc3ccc(Cl)cc3Cl)c3ccccc3)c[nH]c12 (single isomer, unassigned) [68 Isomer 1] | 728 nM | 666 nM | –
17 | Cn1cc(-c2ccc3c(C(=O)C(NCCc4ccc(C#N)cc4)c4ccccc4)cnn3c2)cn1 (single isomer, unassigned) [79 Isomer 1] | – | – | 366 nM
18 | Cn1cc(-c2ccc3c(C(=O)C(NCCc4ccc(C#N)cc4)c4ccccc4)cnn3c2)cn1 (single isomer, unassigned) [79 Isomer 2] | – | – | 60 nM
19 | O=C(c1c[nH]c2cc(-c3ccncc3)ccc12)C(NCCc1ccc(F)cc1)c1ccccc1 (single isomer, unassigned) [82 Isomer 1] | > 30000 nM | – | 1610 nM
20 | Cn1cc(-c2ccc3c(C(=O)C(NCCc4ccc(Cl)cc4)c4ccccc4)c[nH]c3c2)cn1 (single isomer, unassigned) [83 Isomer 2] | 247 nM | 74.7 nM | –
21 | Cn1cc(-c2ccc3c(C(=O)C(NCCc4ccc(C#N)cc4)c4ccccc4)c[nH]c3c2)cn1 (single isomer, unassigned) [84 Isomer 2] | – | 37.5 nM | –
22 | Cn1cc(-c2ccc3c(C(=O)C(NCCc4ccc(F)cc4F)c4ccccc4)c[nH]c3c2)cn1 (single isomer, unassigned) [85 Isomer 2] | 826 nM | 92.6 nM | –
23 | CCn1cc(-c2ccc3c(C(=O)C(NCCc4ccc(Cl)cc4)c4ccccc4)c[nH]c3c2)cn1 (single isomer, unassigned) [86 Isomer 2] | 332 nM | 116 nM | –

Row | SMILES | IC50 [1] | EC50 ([2]; Homo sapiens, HCT-116, 2 h) | EC50 [2]
24 | Cc1ccc(-c2ccc3c(C(=O)C(NCCc4ccc(Cl)cc4)c4ccccc4)c[nH]c3c2)cn1 (single isomer, unassigned) [88 Isomer 2] | 603 nM | 379 nM | –
25 | O=C(c1c[nH]c2cc(-c3cccnc3)ccc12)C(NCCc1ccc(Cl)cc1)c1ccccc1 (single isomer, unassigned) [90 Isomer 2] | 591 nM | 80 nM | –
26 | CC(Cc1ccc(Cl)cc1)NC(C(=O)c1c[nH]c2cc(-c3cnn(C)c3)ccc12)c1ccccc1 (single isomer, unassigned) [92 Isomer 3] | 164 nM | 109 nM | –
27 | N#Cc1ccc(CCNC(C(=O)c2c[nH]c3cc(-c4cnn(CCO)c4)ccc23)c2ccccc2)cc1 (single isomer, unassigned) [95 Isomer 2] | 46 nM | 61.2 nM | –
28 | COCCn1cc(-c2ccc3c(C(=O)C(NCCc4ccc(C#N)cc4)c4ccccc4)c[nH]c3c2)cn1 (single isomer, unassigned) [96 Isomer 2] | 62 nM | 26.4 nM | –
29 | CC(Cc1ccc(Cl)cc1Cl)NC(C(=O)c1c[nH]c2cc(-c3cnn(C)c3)ccc12)c1ccccc1 (single isomer, unassigned) [97 Isomer 1] | 437 nM | – | 135 nM
30 | CC(Cc1ccc(Cl)cc1Cl)NC(C(=O)c1c[nH]c2cc(-c3cnn(C)c3)ccc12)c1ccccc1 (single isomer, unassigned) [97 Isomer 2] | 6260 nM | – | 780 nM
31 | CC(Cc1ccc(Cl)cc1Cl)NC(C(=O)c1c[nH]c2cc(-c3cnn(C)c3)ccc12)c1ccccc1 (single isomer, unassigned) [97 Isomer 3] | > 30000 nM | – | > 10000 nM
32 | CC(Cc1ccc(Cl)cc1Cl)NC(C(=O)c1c[nH]c2cc(-c3cnn(C)c3)ccc12)c1ccccc1 (single isomer, unassigned) [97 Isomer 4] | 6710 nM | – | > 10000 nM
33 | N#Cc1ccc(CCNC(C(=O)c2c[nH]c3cc(-c4cn[nH]c4)ccc23)c2ccccc2)cc1 (single isomer, unassigned) [98 Isomer 2] | 58.3 nM | 18.6 nM | –
34 | N#Cc1ccc(CCNC(C(=O)c2cnn3cc(-c4cn[nH]c4)ccc23)c2ccccc2)cc1 (single isomer, unassigned) [99 Isomer 2] | 15.6 nM | 21.6 nM | –
35 | Cn1cc(-c2ccc3c(C(=O)C(NCCc4ccc(S(N)(=O)=O)cc4)c4ccccc4)cnn3c2)cn1 (single isomer, unassigned) [101 Isomer 2] | 59.2 nM | 47.1 nM | –
36 | COCCn1cc(-c2ccc3c(C(=O)C(NCCc4ccc(C(N)=O)cc4)c4ccccc4)c[nH]c3c2)cn1 (single isomer, unassigned) [183 Isomer 1] | > 5000 nM | – | –
37 | COCCn1cc(-c2ccc3c(C(=O)C(NCCc4ccc(C(N)=O)cc4)c4ccccc4)c[nH]c3c2)cn1 (single isomer, unassigned) [183 Isomer 2] | 717 nM | – | –
38 | Cc1nc(C(=O)C(NCCc2ccc(C(N)=O)cc2)c2ccccc2)c2ccc(-c3cnn(C)c3)cn12 (single isomer, unassigned) [184 Isomer 1] | 672 nM | – | –
39 | Cc1nc(C(=O)C(NCCc2ccc(C(N)=O)cc2)c2ccccc2)c2ccc(-c3cnn(C)c3)cn12 (single isomer, unassigned) [184 Isomer 2] | 522 nM | – | –
40 | O=C(c1c[nH]c2ccccc12)[C@@H](NCCc1ccc(-c2nn[nH]n2)cc1)c1ccccc1 (single isomer, unassigned) [185 Isomer 1] | 1100 nM | – | –
41 | O=C(c1c[nH]c2ccccc12)[C@@H](NCCc1ccc(-c2nn[nH]n2)cc1)c1ccccc1 (single isomer, unassigned) [185 Isomer 2] | > 30000 nM | – | –
42 | O=C(c1c[nH]c2ccccc12)[C@@H](NCCc1ccc(-c2nnc[nH]2)cc1)c1ccccc1 (single isomer, unassigned) [186 Isomer 1] | 1970 nM | – | –
43 | O=C(c1c[nH]c2ccccc12)[C@@H](NCCc1ccc(-c2nnc[nH]2)cc1)c1ccccc1 (single isomer, unassigned) [186 Isomer 2] | 3540 nM | – | –
44 | Cn1cc(-c2ccc3c(C(=O)[C@@H](NCCc4ccc(N)nc4)c4ccccc4)c[nH]c3c2)cn1 (single isomer, unassigned) [187 Isomer 1] | > 5000 nM | – | –
45 | Cn1cc(-c2ccc3c(C(=O)[C@@H](NCCc4ccc(N)nc4)c4ccccc4)c[nH]c3c2)cn1 (single isomer, unassigned) [187 Isomer 2] | 793 nM | – | –
